The values that follow come from patent US20110124842A1 (priority 2003, published 2011).

This experiment deals with IgG 4E10. Description: Competitive ELISA (IC50): peptide competes with biotinylated 4E10-epitope peptide for IgG 4E10. Type of experiment: binding, human. How it is done: IC50, were determined by competitive ELISA using a constant concentration of biotinylated peptide and IgG with a variable concentration of gp41 peptides. Microwells were coated overnight at 4° C. with 50 μl PBS containing neutravidin (Pierce; 4 μg/ml). […] A mixture of a biotinylated 4E10-epitope peptide, […](biotin)-NH2 (SEQ ID NO: 88) (20 nM), IgG 4E10 (0.2 nM), and the competing peptide analog (3-fold dilution series starting at 10 μM) in 0.4% non-fat dry milk, 0.02% Tween and PBS was incubated in a separate 96-well plate at 37° C. for 2 hours. After washing the blocked plate, the mixture of 4E10, biotinylated peptide and competing peptide was added to the wells. After 20 minutes at room temperature, the Wells were washed five times, and a 1:500 dilution of goat anti-human IgG F(ab′)2 HRP conjugate (Pierce) was added. Following incubation at RT for 40 minutes, the wells were washed five times, and developed by adding 50 μl of TMB solution (Pierce) according to the manufacturer's instructions. After ˜20 minutes, wells containing TMB solution were stopped by adding 50 μl of H2SO4 (2M) and the O.D. at 450 nm was read on a microplate reader (Molecular Devices). The concentration of competitor peptide corresponding to a half-maximal signal (IC50) was determined by interpolation of the resulting binding curve. Each peptide competitor was tested in duplicate in at least two separate experiments.
IC50s were determined by competitive ELISA using a constant concentration of biotinylated peptide and IgG with a variable concentration of gp41 peptides. Microwells were coated overnight at 4° C. with 50 μl PBS containing neutravidin (Pierce; 4 μg/ml). […] Meanwhile, a mixture of a biotinylated 4E10-peptide epitope, […](biotin)-NH2 (SEQ ID NO: 88), (20 nM), IgG 4E10 (0.2 nM), and the competing peptide analogue (3-fold dilution series starting at 10 μM) in 0.4% NFDM, 0.02% Tween and PBS was incubated in a separate 96-well plate at 37° C. for 2 h. After washing the blocked plate, the mixture of 4E10, biotinylated peptide and competing peptide was added to the wells. After 20 min at room temperature, the wells were washed five times, and a 1:500 dilution of goat anti-human IgG F(ab′)2 HRP conjugate (Pierce) was added. Following incubation at RT for 40 min, the wells were washed five times, and developed by adding 50 μl of H2SO4 (2 M), and the O.D. at 450 nm was read on a microplate reader (Molecular Devices). The concentration of competitor peptide corresponding to a half-maximal signal (IC50) was determined by interpolation of the resulting binding curve. Each peptide competitor was tested in duplicate in at least two separate experiments.

Where two headings read alike, the source gives them in different places.

The IC50 is the concentration needed to halve the response being measured. With “NWFDITNWLWYIKKKK [Peptide 94-1, NWFDITNWLWYIKKKK-NH2]”, the “improvement in 4E10 binding (IC50) over the starting peptide NWFDITNWLWKKKK-NH2” value was 4 fold and the “improvement in IC50 compared to KGND” value is on record as “over 1000 fold”. Moreover, for the setting “Table 5, unconstrained peptide analogs, 4E10 binding, read-out: IC50”, the IC50 turned out to be 10 nM. For the same sequence, the IC50 (Table 7, 4E10 peptide epitopes, read-out: IC50) amounted to 10 nM. Where the note is “as determined by surface plasmon resonance and ELISA”, the “higher affinity of 4E10 than to the original peptide KGND” value is “approximately 10^3 fold”. For the same sequence, the IC50 (read-out: IC50 (4E10 binding, competitive ELISA)) came to 10 nM.
